Data on one compound can be found in patent US9125898B2, “Acetam derivatives for pain relief” (NEUROTUNE AG, priority 2008, dated 2015).

This assay deals with ddC induced mechanical allodynia in rats. Put plainly: ddC induced mechanical allodynia in rats, von Frey test. Type of assay: in vivo, rat. Particulars: FIG. 4; 15 min after drug administration. On the procedure:
Painful peripheral NP may be induced in rats by i.v. administration of 2′,3′-dideoxycytidine (ddC) mimicking what is seen in AIDS patients undergoing antiviral therapy. The ddC test represents a useful and predictive model to study molecules with analgesic potential in human neuropathic states.
Adult male SD rats (Harlan, Italy, 150-200 g weight) were used. Animals were treated with 25 mg/kg i.v. bolus of 2′,3′-dideoxycytidine, an inhibitor of nucleoside reverse transcriptase used for AIDS therapy that in rodents induces a peripheral neuropathy resulting in allodynic responses to mechanical stimuli. Symptoms severity peaks between 5 to 10 days after administration (Joseph, E. K. et al. —Pain 107 (2004) 147-158). Ten days after administration of ddC, as an intravenous (i.v.) bolus, test substances were administered every day, once a day or b.i.d for 4 weeks. Dosing was withheld in those days in which allodynic tests were performed, and lasted for 24 h and 48 h.
NT-11624 was dissolved in distilled water and was orally by gavage administered as follows • Group 1: 100 mg/kg b.i.d. for 14 days, followed by 50 mg/kg b.i.d. for 7 days, then 50 mg/kg u.i.d. for 7 days. • Group 2: 50 mg/kg b.i.d. for 28 days.
Pregabalin (3B Pharmachem (Wuhan) International Co.) was dissolved in 1% CMC (carboxymethylcellulose) and orally administered at the dose of 15 mg/kg b.i.d. for 28 days.
Thresholds for mechanical allodynia were measured using an electronic Von Frey apparatus. […] After 4 week drug administration, additional tests were performed beyond the 60 min point, at 4, 8, 24, 48 and 56 h. Results represent the mean (±S.E.M.) of mechanical thresholds expressed in grams.
Drugs: The following substance was used: NT-11624 (batch No. 0000104580 supplied by Brane Discovery Srl, Gerenzano Italy). NT-11624 was dissolved in distilled water and given p.o. every day, except in those days in which allodynic tests were performed and lasted for 24 h, 48 h and 56 h (i.e. days 1, 3, 7, 10, 14, 21, 28).
The following groups of treatment were utilized: • NT-11624 (Group 1): rats received 100 mg/kg b.i.d. of NT-11624 for 14 days, then 50 mg/kg b.i.d. for 7 days, then 50 mg/kg u.i.d. for 7 days. • NT-11624 (Group 2): rats received 50 mg/kg b.i.d. for 28 days • Pregabalin: rats received 15 mg/kg b.i.d. for 28 days
Administration volume was 10 ml/kg body weight. Pregabalin [3B Pharmachem (Wuhan), International Co] was dissolved in CMC 1% (carboxymethylcellulose, Sigma-Aldrich, Italy), and orally given as described before. Control rats received vehicle only.
ddC intravenous injection: ddC was dissolved in saline to a concentration of 25 mg/kg (1 ml) and was administered i.v. into the rat tail vein. Control rats were treated with an equal volume of saline i.v.
The administration of ddC produces dose-dependent mechanical hypersensitivity and allodynia peaking in severity between 5-10 days after the administration. The test is usually performed at day 10.
Von Frey test: Each animal was placed in a chamber with a mesh metal floor covered by a plastic dome that enabled the animal to walk freely, but not to jump. The mechanical stimulus was then delivered in the mid-plantar skin of left hind paw using an electronic Von Frey apparatus (37400 Dynamic Plantar Aesthesiometer; Ugo Basile, Comerio, Varese, Italy). The cut-off was fixed at 50 g, while the increasing force rate (ramp duration) was settled at 20 sec. […] At day 28, additional tests were performed at 4, 8, 24, 48 and 56 h after drug administration. Results represent the mean (±S.E.M.) of mechanical thresholds expressed as grams.

For the compound `NCC1(CC(=O)O)CCCCC1` [GABAPENTIN, Gabapentin, reference compound], the “Reversal of ddC-induced neuropathy (mechanical threshold, von Frey)” value is recorded as “not”.
